Experimental data published in ChEMBL document CHEMBL4699589, “4-Hydroxy Pyridones from Heterologous Expression and Cultivation of the Native Host” (2020).

Columns and labels:
Type in all cases: functional
Staphylococcus aureus = assay: Antibacterial activity against Staphylococcus aureus 209P assessed as reduction in microbial growth after 1 day by two-fold dilution method; conditions: 24 h
Cryptococcus neoformans = assay: Antifungal activity against Cryptococcus neoformans assessed as reduction in microbial growth after 2 to 3 days by two-fold dilution method; conditions: time day 2-3
Escherichia coli = assay: Antibacterial activity against Escherichia coli assessed as reduction in microbial growth after 1 day by two-fold dilution method; conditions: 24 h
Candida albicans = assay: Antifungal activity against Candida albicans ATCC96901 assessed as reduction in microbial growth after 2 to 3 days by two-fold dilution method; conditions: time day 2-3

SMILES	MIC (Staphylococcus aureus) [µM]	MIC (Cryptococcus neoformans) [µM]	MIC (Escherichia coli) [µM]	MIC (Candida albicans) [µM]
C/C=C/C[C@H](C)C[C@H](C)C(=O)c1c(O)cc[nH]c1=O	> 100	> 100	> 100	> 100
C/C=C/C[C@H](C)C[C@]1(C)Oc2c(-c3ccc(O)cc3)c[nH]c(=O)c2[C@H]1O	> 100	–	> 100	> 100
C/C=C/C[C@H](C)C[C@H](C)C(=O)C1=C(O)[C@H](Cc2ccc(O)cc2)NC1=O	> 100	> 100	> 100	> 100
C[C@H]1C[C@@H]2[C@H](c3c(c(-c4ccc(O)cc4)c[nH]c3=O)O[C@@H]2C)[C@@H](C)C1	> 100	6.25	> 100	> 100
C/C=C/C[C@H](C)C[C@@]1(C)Oc2c(-c3ccc(O)cc3)c[nH]c(=O)c2[C@H]1O	> 100	–	> 100	> 100

Now from value to compound:

MIC (Staphylococcus aureus) [µM]	MIC (Cryptococcus neoformans) [µM]	MIC (Escherichia coli) [µM]	MIC (Candida albicans) [µM]	SMILES
> 100	6.25	> 100	> 100	C/C=C/C[C@H](C)C[C@H](C)C(=O)c1c(O)c(-c2ccc(O)cc2)c[nH]c1=O
> 100	> 100	> 100	> 100	C[C@H]1[C@H](O)[C@@H](C)C[C@@H]2[C@@H]1c1c(c(-c3ccc(O)cc3)c[nH]c1=O)O[C@H]2C
> 100	25	> 100	> 100	C/C=C/C[C@H](C)C[C@H](C)C(=O)C1=C(O)[C@H]([C@@H](O)c2ccc(O)cc2)NC1=O
> 100	> 100	> 100	> 100	C/C=C/C[C@H](C)C[C@H](C)C(=O)C1=C(O)/C(=C/c2ccc(O)cc2)NC1=O
> 100	–	> 100	> 100	C/C=C/C[C@H](C)C[C@]1(C)Oc2c(-c3ccc(O)cc3)c[nH]c(=O)c2[C@@H]1O
> 100	–	> 100	> 100	C/C=C/C[C@H](C)C[C@@]1(C)Oc2c(-c3ccc(O)cc3)c[nH]c(=O)c2[C@@H]1O
